Earlier results as cited in patent publication US9517201B2, “Nanocarrier and nanogel compositions” (RUTGERS, THE STATE UNIVERSITY OF NEW JERSEY, priority 2008, dated 2016).
Structures can show the parent of a compound that is named as a salt.

SMILES: COc1cccc2c1C(=O)c1c(O)c3c(c(O)c1C2=O)C[C@@](O)(C(=O)CO)C[C@@H]3O[C@H]1C[C@H](N)[C@H](O)[C@H](C)O1 [Doxorubicin Hydrochloride, Doxorubicin hydrochloride]
- solubility of Doxorubicin Hydrochloride in water: ~10000 µg/mL
